Publication PMC5321741, “Arylmethylamino steroids as antiparasitic agents” (Nature Communications, 2017)

How the values were obtained:
[1] = test system: P. berghei asexual stages; test: ex vivo drug assay (luciferase), asexual stages; format: cell-based; details: Plasmodium berghei; 24 h incubation, n=3; read-out: IC50 against P. berghei ex vivo
Experimental: Plates frozen at −80 °C were thawed at 37 °C. The cells were lysed at room temperature in 10 μl 1x luciferin lysis buffer (Luciferase Cell Culture Lysis 5 × reagent, Promega), and 100 μl luciferase assay substrate was added to each well (Luciferase Assay System, Promega). Luciferase activity was measured on a luminescence plate reader (Mithras LB940 luminometer, Berthold Technologies). The mean of the luciferase activity was calculated for each technical triplicate and normalized as follows: (Lucx−LucRBC)/(Lucsolvent−LucRBC) with Lucx and Lucsolvent=mean luciferase activity for parasites incubated with compound x and with solvent (DMSO for 1o and PBS for MB), respectively, and LucRBC=mean luciferase activity of non-infected red blood cells (background). IC50 values were calculated using Prism (GraphPad, log(inhibitor) versus normalized response—variable slope) in three independent experiments for the P. falciparum gametocyte assay and five for the P. berghei ex vivo drug assay.
The animal experiments described in this part were performed at the Institut de Biologie Moléculaire et Cellulaire (Strasbourg, France), using facilities and protocols adhering to national regulations of laboratory animal welfare in France. […] Parasitaemia was monitored via FACS analysis (FACSCalibur, BD Bioscience). […]

K-562 = test: antiproliferative activity on K-562 cells; format: cell-based; details: 72 h
Experimental: (§1) Compounds were tested for their antiproliferative activity on HUVEC and K-562 cells and for cytotoxicity on HeLa cells using standard protocols. K-562 (DSM ACC 10), HUVEC (ATCC CRL-1730), and HeLa (DSM ACC 57) cells were cultured as described previously. To assay the antiproliferative and cytotoxic effect, procedures were carried out as described before. In brief, for each experiment with K-562 and HeLa ∼10,000 cells were seeded per well of the 96-well microplates. For the cytotoxicity assay, the HeLa cells were preincubated for 48 h without the test substances. Cells were incubated for 72 h at 37 °C in a humidified atmosphere and 5% CO2. Suspension cultures of K-562 in microplates were analysed by an electronic cell analyzer system CASY 1 (SCHÄRFE, Reutlingen, Germany). The monolayer of the HUVEC and HeLa cells were fixed by glutaraldehyde (MERCK) and stained with a 0.05% solution of methylene blue (SERVA). After gently washing, the stain was eluted by 0.2 ml of 0.33 N HCl in the wells. The optical densities were measured at 660 nm in a microplate reader. The calculations of the different values of GI50 and CC50 were performed with the software Magellan (TECAN).

HUVEC = test: antiproliferative activity on HUVEC cells; format: cell-based; details: 72 h
Experimental: as §1

HeLa = test: cytotoxicity on HeLa cells; format: cell-based; details: 72 h
Experimental: as §1

[2] = test system: P. falciparum (strain 3D7); test: 72 h 3H-hypoxanthine incorporation assay, asexual blood stages; format: cell-based, Plasmodium falciparum; details: 72 h 3H-hypoxanthine incorporation, asexual blood stages; read-out: Antiplasmodial activity IC50 Pf (3D7)

Q: With `CN(C)c1ccc2nc3ccc(=[N+](C)C)cc-3sc2c1` [methylene blue, reference compound] as the molecule, how does the IC50 [1] read?
A: 0.0026 ± 0.0012 µM

Q: Which results are given for `CC(C)CCCC(C)C1CCC2C3CCC4CC(O)C(NCc5ccccc5O)CC4(C)C3CCC12C` (stereo not drawn) [13c]?
A: GI50 (K-562): 17.7 µM; GI50 (HUVEC): 23.7 µM; CC50 (HeLa): 85.3 µM; IC50 [2]: 0.465 µM

Q: How did the GI50 (K-562) turn out when `CC(C)CCCC(C)C1CCC2C3CCC4CC(O)C(NCc5ccccc5O)CC4(C)C3CCC12C` (stereo not drawn) [14c] was run?
A: 8.2 µM

Q: And the GI50 (HUVEC)?
A: 6.7 µM

Q: And the CC50 (HeLa)?
A: 21.8 µM

Q: What about the IC50 [2] of the same molecule?
A: 0.208 µM
